# Source: US20240101576A1, “HETEROCYCLIC INHIBITORS OF EGFR AND/OR HER2, FOR USE IN THE TREATMENT OF CANCER” (Scorpion Therapeutics, Inc., priority 2020, published 2024)
# Columns and labels:
# Format in all cases: cell-based
# [1] = molecular target: T1, EGFR exon 20 NPG Ins D770_N771 (Ba/F3 cells) (Homo sapiens, UniProt P00533, INS770NPG); assay: Inhibitor activity on EGFR-dependent cell growth (CellTiter-Glo, 72 h), Ba/F3 EGFR exon 20 NPG Ins; settings: read-out: BaF3 NPG IC50
# T1 construct: expressed in transfected cells; host or cells: Ba/F3 (murine pro-B cells), retroviral transduction, puromycin selection, IL3-independent pool
# Summary of the method: (§1)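 IC50s derive from a sigmoidal dose–response fit of CellTiter-Glo signal. The signal was normalised between […]-treated cells and cell-free medium. Ba/F3 mutant-EGFR cells, seeded at 400–800/well depending on the line, had 72 h of exposure to a 10-point, 3-fold compound series.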
# [2] = molecular target: T2, EGFR exon 20 ASV Ins V769_D770 (Ba/F3 cells) (Homo sapiens, UniProt P00533, INS769ASV); assay: Inhibitor activity on EGFR phosphorylation (pEGFR AlphaLISA, 2 h), Ba/F3 EGFR exon 20 ASV Ins; settings: EGFR phosphorylation, AlphaLISA, 2 hours; read-out: ASV IC50 (pEGFR)
# T2 construct: expressed in transfected cells; host or cells: Ba/F3 (murine pro-B cells), retroviral transduction, puromycin selection, IL3-independent pool
# Summary of the method: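 Cellular EGFR autophosphorylation assay. IL3-independent Ba/F3 transductants or CUTO14 cells are incubated with serially diluted compound (3-fold, 10 points) for 2 h, then lysed and pEGFR quantified by AlphaLISA.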
# [3] = molecular target: T1, EGFR exon 20 NPG Ins D770_N771 (Ba/F3 cells); assay: Inhibitor activity on EGFR phosphorylation (pEGFR AlphaLISA, 2 h), Ba/F3 EGFR exon 20 NPG Ins
# From the text: Example B. Inhibitor Activity on EGFR phosphorylation (pEGFR)
# EGFR mutant Ba/F3 cells were generated by transduction with retrovirus containing vectors expressing EGFR L858R, EGFR exon 19del, EGFR L858R/C797S, EGFR exon 20 NPG Ins D770_N771, EGFR exon 20 ASV Ins V769_D770, or EGFR exon 20 SVD Ins D770_N771 genes along with a puromycin selection marker. Transduced cells are selected with puromycin for 7 days and are then be transferred into culture media without Interleukin 3 (IL3). Surviving cells are confirmed to express EGFR by Western blot and maintained as a pool. CUTO14 cells were obtained from Dr. Robert C. Doebele at the University of Colorado. The IC50 date are included in Table 6 and Table 7.
# 1.1 Cells are harvested from flask into cell culture medium and the cell number counted.
# 1.2 Cells are diluted with culture medium to the desired density and 40 μL of cell suspension is added into each well of 384-well cell culture plate and the seeding density is 50K cells/well (Ba/F3) or 12.5K cells/well (CUTO14).
# 2 Compound Preparation and Treatment
# 2.1 Test compounds are dissolved to 10 mM in a DMSO stock solution. 45 μL of stock solution is transferred to a 384 polypropylene plate (pp-plate). Perform 3-fold, 10-point dilution via transferring 15 μL compound into 30 μL DMSO using a TECAN (EVO200) liquid handler.
# 2.2 Spin plates at room temperature at 1,000 RPM for 1 minute.
# 2.3 Transfer 5 nL of diluted compound from compound source plate into the cell plate.
# 2.4 After compound treatment for 2 hours, perform pEGFR detection by AlphaLISA for compound treatment plates as described in “Detection” section.
# 3 Detection by pEGFR AlphaLISA (Perkin-Elmer)
# 3.1 Plates are removed from incubators and equilibrated at room temperature for 10 minutes, and media was removed
# 3.2 10 μL of lysis buffer is added and plates shaken at 600 rpm for 1 hr.
# 3.3 Prepare acceptor mix just before use and dispense 5 μL of acceptor mix to all the wells. Shake 350 rpm for Ihr in the dark
# 3.4 Prepare donor mix under low light conditions prior to use. Dispense 5 μL of donor mix to all the wells. Mix well on the shaker, seal and wrap in aluminum foil and incubate 1.5 hrs at room temperature in the dark
# 3.5 Transfer 18.5 μL mixture to OptiPlate 384, and read using an Envision. The IC50 date were included in Table 6 and Table 7.
# EGFR WT (Ba/F3 cells) = molecular target: T3, EGFR WT (Ba/F3 cells) (Homo sapiens, UniProt P00533); assay: Inhibitor activity on EGFR-dependent cell growth (CellTiter-Glo, 72 h), Ba/F3 EGFR WT; settings: read-out: BaF3 WT IC50
# T3 construct: expressed in transfected cells; host or cells: Ba/F3 (murine pro-B cells), retroviral transduction, puromycin selection, maintained with EGF
# Summary of the method: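 This growth assay used Ba/F3 cells that depend on wild-type EGFR and are kept in EGF without IL3. Compounds were made up as 10 mM DMSO stocks and diluted 3-fold over 10 points. 120 nL went onto 600 cells/well. After 72 hours, 40 μL CellTiter-Glo was added and luminescence read on EnVision after 30 min.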
# [4] = molecular target: T4, EGFR exon 20 SVD Ins D770_N771 (Ba/F3 cells) (Homo sapiens, UniProt P00533, INS770SVD); assay: Inhibitor activity on EGFR-dependent cell growth (CellTiter-Glo, 72 h), Ba/F3 EGFR exon 20 SVD Ins; settings: read-out: BaF3 SVD IC50
# T4 construct: expressed in transfected cells; host or cells: Ba/F3 (murine pro-B cells), retroviral transduction, puromycin selection, IL3-independent pool
# Summary of the method: as §1
# [5] = molecular target: T2, EGFR exon 20 ASV Ins V769_D770 (Ba/F3 cells); assay: Inhibitor activity on EGFR-dependent cell growth (CellTiter-Glo, 72 h), Ba/F3 EGFR exon 20 ASV Ins; settings: read-out: BaF3 ASV IC50
# Summary of the method: as §1
# [6] = molecular target: T5, EGFR exon 20 FQEA Ins A763_V764 (Ba/F3 cells) (Homo sapiens, UniProt P00533, INS763FQEA); assay: Inhibitor activity on EGFR-dependent cell growth (CellTiter-Glo, 72 h), Ba/F3 EGFR exon 20 FQEA Ins; settings: read-out: BaF3 FQEA IC50
# T5 construct: expressed in transfected cells; host or cells: Ba/F3 (murine pro-B cells), retroviral transduction, puromycin selection, IL3-independent pool
# Summary of the method: as §1
# T5 sequence (P00533 with tags, fused parts or gaps INS763FQEA): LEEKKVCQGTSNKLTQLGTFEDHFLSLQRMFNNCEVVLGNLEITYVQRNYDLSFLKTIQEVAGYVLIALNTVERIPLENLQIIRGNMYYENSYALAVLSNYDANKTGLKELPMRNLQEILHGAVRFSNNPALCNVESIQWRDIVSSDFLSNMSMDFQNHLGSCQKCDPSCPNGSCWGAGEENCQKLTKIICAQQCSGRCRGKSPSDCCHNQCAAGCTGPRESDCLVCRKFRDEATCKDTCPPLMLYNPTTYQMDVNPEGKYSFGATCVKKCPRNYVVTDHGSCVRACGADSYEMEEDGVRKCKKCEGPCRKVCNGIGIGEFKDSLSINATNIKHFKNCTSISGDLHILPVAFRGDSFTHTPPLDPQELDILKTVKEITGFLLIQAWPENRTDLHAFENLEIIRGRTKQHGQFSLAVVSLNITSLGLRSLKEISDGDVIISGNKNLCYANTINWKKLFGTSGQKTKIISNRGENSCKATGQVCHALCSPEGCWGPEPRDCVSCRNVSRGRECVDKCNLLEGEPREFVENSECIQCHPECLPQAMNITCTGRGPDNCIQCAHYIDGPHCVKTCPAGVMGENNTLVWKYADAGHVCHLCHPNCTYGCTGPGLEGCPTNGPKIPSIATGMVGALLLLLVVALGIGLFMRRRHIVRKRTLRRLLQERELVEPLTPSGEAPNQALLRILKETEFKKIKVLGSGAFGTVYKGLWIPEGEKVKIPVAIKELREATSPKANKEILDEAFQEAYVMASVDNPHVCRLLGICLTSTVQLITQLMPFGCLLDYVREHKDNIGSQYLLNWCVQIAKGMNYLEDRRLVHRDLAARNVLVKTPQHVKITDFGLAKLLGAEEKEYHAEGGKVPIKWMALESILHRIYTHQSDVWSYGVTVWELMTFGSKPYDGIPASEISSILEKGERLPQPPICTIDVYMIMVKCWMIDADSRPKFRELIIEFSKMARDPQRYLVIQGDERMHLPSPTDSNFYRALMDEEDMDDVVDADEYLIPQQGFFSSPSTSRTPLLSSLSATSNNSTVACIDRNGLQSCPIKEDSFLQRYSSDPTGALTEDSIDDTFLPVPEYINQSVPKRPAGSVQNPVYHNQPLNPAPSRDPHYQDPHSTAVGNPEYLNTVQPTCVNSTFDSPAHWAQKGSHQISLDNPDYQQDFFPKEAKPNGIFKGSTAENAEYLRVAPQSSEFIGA
# T1 sequence (P00533 with tags, fused parts or gaps INS770NPG): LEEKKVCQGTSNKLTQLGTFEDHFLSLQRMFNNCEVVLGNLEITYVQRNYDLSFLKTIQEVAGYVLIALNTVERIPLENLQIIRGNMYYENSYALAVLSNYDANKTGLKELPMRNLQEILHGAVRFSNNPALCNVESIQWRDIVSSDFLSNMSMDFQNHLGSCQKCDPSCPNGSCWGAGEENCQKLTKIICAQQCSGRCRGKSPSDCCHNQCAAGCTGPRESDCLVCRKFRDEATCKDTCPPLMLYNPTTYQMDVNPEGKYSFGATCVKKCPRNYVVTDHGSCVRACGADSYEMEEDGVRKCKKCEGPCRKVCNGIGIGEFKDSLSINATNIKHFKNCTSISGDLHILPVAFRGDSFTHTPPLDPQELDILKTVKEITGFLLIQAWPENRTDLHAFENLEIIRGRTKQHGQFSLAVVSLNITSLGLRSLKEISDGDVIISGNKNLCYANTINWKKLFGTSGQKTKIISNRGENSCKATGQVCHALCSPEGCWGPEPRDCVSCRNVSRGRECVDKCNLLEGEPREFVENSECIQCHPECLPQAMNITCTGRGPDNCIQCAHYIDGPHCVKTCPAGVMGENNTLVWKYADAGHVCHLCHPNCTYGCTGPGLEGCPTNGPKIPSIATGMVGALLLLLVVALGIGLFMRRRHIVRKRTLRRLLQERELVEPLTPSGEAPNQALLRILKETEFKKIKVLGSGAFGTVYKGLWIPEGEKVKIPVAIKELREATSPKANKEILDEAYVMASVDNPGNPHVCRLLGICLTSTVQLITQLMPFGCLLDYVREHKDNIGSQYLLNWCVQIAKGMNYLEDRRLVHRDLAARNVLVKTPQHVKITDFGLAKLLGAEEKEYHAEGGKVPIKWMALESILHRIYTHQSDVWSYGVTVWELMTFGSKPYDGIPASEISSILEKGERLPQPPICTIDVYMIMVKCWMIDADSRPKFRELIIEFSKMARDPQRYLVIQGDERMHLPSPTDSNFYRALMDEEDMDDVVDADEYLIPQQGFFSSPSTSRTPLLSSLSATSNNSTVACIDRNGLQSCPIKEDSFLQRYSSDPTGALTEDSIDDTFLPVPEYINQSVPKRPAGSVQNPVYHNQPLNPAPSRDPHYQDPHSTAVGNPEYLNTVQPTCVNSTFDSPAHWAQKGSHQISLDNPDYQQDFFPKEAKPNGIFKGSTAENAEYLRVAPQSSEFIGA
# T2 sequence (P00533 with tags, fused parts or gaps INS769ASV): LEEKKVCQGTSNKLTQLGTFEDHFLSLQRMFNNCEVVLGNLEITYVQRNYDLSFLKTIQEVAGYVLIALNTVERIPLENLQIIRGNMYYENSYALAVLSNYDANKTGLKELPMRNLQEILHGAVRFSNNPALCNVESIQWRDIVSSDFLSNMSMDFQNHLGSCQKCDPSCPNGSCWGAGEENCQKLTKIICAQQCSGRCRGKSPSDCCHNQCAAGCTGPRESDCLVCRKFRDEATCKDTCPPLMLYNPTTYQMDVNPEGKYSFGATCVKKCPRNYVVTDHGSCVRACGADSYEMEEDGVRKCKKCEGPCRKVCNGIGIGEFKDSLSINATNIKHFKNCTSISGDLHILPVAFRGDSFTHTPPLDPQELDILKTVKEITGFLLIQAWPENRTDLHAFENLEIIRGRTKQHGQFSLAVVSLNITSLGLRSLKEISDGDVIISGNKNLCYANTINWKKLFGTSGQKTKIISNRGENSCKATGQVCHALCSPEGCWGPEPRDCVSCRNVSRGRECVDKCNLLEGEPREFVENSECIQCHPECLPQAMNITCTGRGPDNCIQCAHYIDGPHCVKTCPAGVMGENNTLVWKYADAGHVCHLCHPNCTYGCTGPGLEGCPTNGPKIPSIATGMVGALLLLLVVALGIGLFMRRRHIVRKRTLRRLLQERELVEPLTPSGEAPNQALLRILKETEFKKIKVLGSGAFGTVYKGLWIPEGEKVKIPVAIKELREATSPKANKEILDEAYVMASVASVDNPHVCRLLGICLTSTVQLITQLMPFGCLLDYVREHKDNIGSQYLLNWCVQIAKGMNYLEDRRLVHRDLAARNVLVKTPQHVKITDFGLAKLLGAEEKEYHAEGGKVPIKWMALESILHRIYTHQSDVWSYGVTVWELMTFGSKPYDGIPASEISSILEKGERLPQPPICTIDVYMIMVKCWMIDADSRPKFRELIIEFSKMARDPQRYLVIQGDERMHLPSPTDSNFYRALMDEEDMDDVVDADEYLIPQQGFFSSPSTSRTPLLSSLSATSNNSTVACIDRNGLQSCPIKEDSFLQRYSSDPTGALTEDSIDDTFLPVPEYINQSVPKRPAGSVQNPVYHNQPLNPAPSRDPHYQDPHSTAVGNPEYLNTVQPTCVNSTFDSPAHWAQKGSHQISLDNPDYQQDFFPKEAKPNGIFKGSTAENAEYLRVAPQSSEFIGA
# T4 sequence (P00533 with tags, fused parts or gaps INS770SVD): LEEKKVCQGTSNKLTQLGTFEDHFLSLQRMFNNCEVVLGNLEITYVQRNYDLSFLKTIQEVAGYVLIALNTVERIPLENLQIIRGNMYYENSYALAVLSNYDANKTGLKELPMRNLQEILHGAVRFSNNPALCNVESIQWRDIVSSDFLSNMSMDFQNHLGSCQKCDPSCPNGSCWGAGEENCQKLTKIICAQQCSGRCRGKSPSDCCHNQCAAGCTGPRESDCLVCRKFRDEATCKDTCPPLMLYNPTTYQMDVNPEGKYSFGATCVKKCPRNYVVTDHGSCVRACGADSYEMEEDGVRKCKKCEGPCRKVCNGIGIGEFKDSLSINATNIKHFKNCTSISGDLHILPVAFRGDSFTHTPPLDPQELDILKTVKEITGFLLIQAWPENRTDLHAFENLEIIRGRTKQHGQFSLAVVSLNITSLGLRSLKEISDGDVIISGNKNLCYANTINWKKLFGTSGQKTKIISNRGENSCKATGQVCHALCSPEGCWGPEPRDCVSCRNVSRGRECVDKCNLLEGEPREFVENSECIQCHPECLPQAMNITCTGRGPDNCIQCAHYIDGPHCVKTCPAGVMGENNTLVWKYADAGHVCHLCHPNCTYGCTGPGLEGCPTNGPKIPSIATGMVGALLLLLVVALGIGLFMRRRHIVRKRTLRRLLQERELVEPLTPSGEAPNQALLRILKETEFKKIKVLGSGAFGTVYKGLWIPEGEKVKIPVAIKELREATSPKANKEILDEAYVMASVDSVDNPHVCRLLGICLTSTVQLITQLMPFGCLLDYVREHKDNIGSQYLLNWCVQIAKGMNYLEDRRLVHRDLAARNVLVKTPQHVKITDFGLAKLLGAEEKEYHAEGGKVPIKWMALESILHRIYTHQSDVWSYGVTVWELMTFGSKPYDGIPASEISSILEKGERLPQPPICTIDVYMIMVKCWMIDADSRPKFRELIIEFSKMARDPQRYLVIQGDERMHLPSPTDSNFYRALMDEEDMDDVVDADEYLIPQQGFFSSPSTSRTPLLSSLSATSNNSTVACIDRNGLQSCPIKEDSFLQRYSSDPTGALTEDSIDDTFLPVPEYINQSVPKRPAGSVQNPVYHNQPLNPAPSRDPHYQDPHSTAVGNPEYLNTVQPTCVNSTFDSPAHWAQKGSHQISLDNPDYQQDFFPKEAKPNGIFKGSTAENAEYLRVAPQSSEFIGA
SMILES,IC50 [1] [nM],IC50 [2] [nM],IC50 [3] [nM],IC50 (EGFR WT (Ba/F3 cells)) [nM],IC50 [4] [nM],IC50 [5] [nM],IC50 [6] [nM]
"CNc1ccc2nccc(-c3[nH]c4c(c3Nc3cccc(Cl)c3OC)C(=O)NCC4)c2n1 [Compound 152, 3-((3-chloro-2-methoxyphenyl)amino)-2-(6-(methylamino)-1,5-naphthyridin-4-yl)-1,5,6,7-tetrahydro-4H-pyrrolo[3,2-c]pyridin-4-one]",< 100,< 100,< 100,< 100,,,
"COc1c(F)cccc1Nc1c(-c2ncnc3cccnc23)[nH]c2c1C(=O)NCC2 [Compound 154, 3-((3-fluoro-2-methoxyphenyl)amino)-2-(pyrido[3,2-d]pyrimidin-4-yl)-1,5,6,7-tetrahydro-4H-pyrrolo[3,2-c]pyridin-4-one]",> 1000,> 1000,100 to 1000,< 100,,,
"COCCNc1ccc2nccc(-c3[nH]c4c(c3Nc3cccc(Cl)c3OC)C(=O)NCC4)c2n1 [Compound 680, 3-[(3-chloro-2-methoxyphenyl)amino]-2-[6-[(2-methoxyethyl)amino]-1,5-naphthyridin-4-yl]-1H,5H,6H,7H-pyrrolo[3,2-c]pyridin-4-one; formic acid]",< 100,< 100,< 100,< 100,< 100,< 100,< 100
"COc1c(F)cccc1Nc1c(-c2ccnc(N)c2F)[nH]c2c1C(=O)NCC2 [Compound 687, 2-(2-amino-3-fluoropyridin-4-yl)-3-[(3-fluoro-2-methoxyphenyl)amino]-1H,5H,6H,7H-pyrrolo[3,2-c]pyridin-4-one]",100 to 1000,100 to 1000,< 100,> 1000,100 to 1000,100 to 1000,100 to 1000
"CNc1nccc(-c2[nH]c3c(c2Nc2cccc(F)c2C)C(=O)NCC3)n1 [Compound 690, 3-[(3-fluoro-2-methylphenyl)amino]-2-[2-(methylamino)pyrimidin-4-yl]-1H,5H,6H,7H-pyrrolo[3,2-c]pyridin-4-one]",100 to 1000,< 100,< 100,< 100,,,
"Cc1c(F)cccc1Nc1c(-c2ccnc(N)c2F)[nH]c2c1C(=O)NCC2 [Compound 692, 2-(2-amino-3-fluoropyridin-4-yl)-3-[(3-fluoro-2-methylphenyl)amino]-1H,5H,6H,7H-pyrrolo[3,2-c]pyridin-4-one]",100 to 1000,100 to 1000,< 100,100 to 1000,100 to 1000,100 to 1000,100 to 1000
CNc1nccc(-c2[nH]c3c(c2Nc2cccc(Cl)c2OC)C(=O)NCC3)n1 [compound 108],< 100,< 100,< 100,100 to 1000,< 100,< 100,100 to 1000
Nc1nccc(-c2[nH]c3c(c2Nc2cccc(F)c2F)C(=O)NCC3)n1 [compound 202],100 to 1000,< 100,< 100,100 to 1000,100 to 1000,100 to 1000,100 to 1000
COc1c(Cl)cccc1Nc1c(-c2ccnc(NC(=O)C3CC3)n2)[nH]c2c1C(=O)NCC2 [compound 221],100 to 1000,100 to 1000,< 100,> 1000,100 to 1000,100 to 1000,100 to 1000
Cc1c(F)cccc1Nc1c(-c2ccnc(N)n2)[nH]c2c1C(=O)NCC2 [compound 282],100 to 1000,< 100,< 100,100 to 1000,,,
COc1c(Cl)cccc1Nc1c(-c2ccnc(N)c2)[nH]c2c1C(=O)NCC2 [compound 285],100 to 1000,< 100,< 100,> 1000,100 to 1000,100 to 1000,100 to 1000
COc1ccc2nccc(-c3[nH]c4c(c3Nc3cccc(F)c3OC)C(=O)NCC43CCNCC3)c2n1 [compound 685],100 to 1000,< 100,< 100,100 to 1000,,,

# The next lines start with the values.
IC50 [1] [nM],IC50 [2] [nM],IC50 [3] [nM],IC50 (EGFR WT (Ba/F3 cells)) [nM],IC50 [4] [nM],IC50 [5] [nM],IC50 [6] [nM],SMILES
100 to 1000,< 100,< 100,100 to 1000,100 to 1000,100 to 1000,100 to 1000,"CNc1nccc(-c2[nH]c3c(c2Nc2cccc(F)c2OC)C(=O)NCC3)n1 [Compound 691, 3-[(3-fluoro-2-methoxyphenyl)amino]-2-[2-(methylamino)pyrimidin-4-yl]-1H,5H,6H,7H-pyrrolo[3,2-c]pyridin-4-one]"
< 100,< 100,< 100,< 100,< 100,< 100,< 100,COc1c(Cl)cccc1Nc1c(-c2ccnc(Nc3cnn(C)c3)n2)[nH]c2c1C(=O)NCC2 [compound 109]
100 to 1000,< 100,< 100,100 to 1000,100 to 1000,100 to 1000,100 to 1000,CCc1c(F)cccc1Nc1c(-c2ccnc(N)n2)[nH]c2c1C(=O)NCC2 [compound 195]
100 to 1000,100 to 1000,< 100,100 to 1000,,,,COc1c(Cl)cccc1Nc1c(-c2ccnc(C)n2)[nH]c2c1C(=O)NCC2 [compound 206]
100 to 1000,100 to 1000,< 100,> 1000,100 to 1000,100 to 1000,100 to 1000,COc1c(Cl)cccc1Nc1c(-c2ccnc(NC(C)=O)n2)[nH]c2c1C(=O)NCC2 [compound 220]
100 to 1000,100 to 1000,< 100,100 to 1000,,,< 100,Nc1nccc(-c2[nH]c3c(c2Nc2ccccc2)C(=O)NCC3)n1 [compound 283]
> 1000,> 1000,100 to 1000,> 1000,> 1000,> 1000,> 1000,COc1nccc(-c2[nH]c3c(c2Nc2cccc(Cl)c2OC)C(=O)NCC3)n1 [compound 286]
100 to 1000,< 100,< 100,> 1000,100 to 1000,100 to 1000,100 to 1000,COc1c(Cl)cccc1Nc1c(-c2ccnc3c2OCC(=O)N3)[nH]c2c1C(=O)NCC2 [compound 308]
